Source: patent US20190127705A1, “METHOD FOR CULTURING MULTIPLE OVARIAN FOLLICLES BY USING ANGIOTENSIN II RECEPTOR AGONIST” (SEOUL NATIONAL UNIVERSITY R&DB FOUNDATION, priority 2016, published 2019)
Entries after “also recorded” stand apart in the source; their conditions may differ.

How the values were obtained:
Format in all cases: cell-based, mouse
[1] = system: cluster of multiple follicles; assay: in vitro culturing of a cluster of multiple follicles (growth, follicle fluid, maturation rate); details: for growth of the cluster of multiple follicles: cluster of two to four joined follicles, fifth day compared with 13th day
From the text: (§1) Specifically, an ovary was separated from a 14-day old mouse and placed in HBSS (Hank's balanced salt solution) containing 10% bovine serum. Then, pre-antral follicles in an early developmental stage were mechanically separated using a 28-gauge syringe needle. At this time, degenerated pre-antral follicles were removed, and healthy pre-antral follicles were used for a pre-antral follicle culturing. One separated pre-antral follicle was used for a single-follicle culturing, and a cluster including two to four pre-antral follicles joined together was used for culturing a cluster of multiple follicles.
(§2) After 25 20 μl culture liquid droplets were made on each culture dish (Falcon 3000, BD Biosciences, 60×15 mm), the collected single pre-antral follicle, or the cluster of multiple follicles consisting of 2 to 4 joined pre-antral follicles were seeded to each droplet. Then, those follicles were cultured in a 5% CO2 incubator at 37° C. for about 2 weeks. The culture liquid used here is Opti-MEM medium (Invitrogen) including insulin, 5% bovine serum, recombinant follicle stimulating hormone (FSH, Gonal-F®, Merck Serono, 0.2 IU/mL) and recombinant luteinizing hormone (LH, Luveris®, Merck Serono, 0.1 IU/mL). The culture liquid was changed in half with new medium every two days. In culturing process, a follicle morphology was observed using an inverted microscope (TE-2000; Nikon).
(§3) In order to observe a follicle culturing effect based on a regulation of the angiotensin II receptor, the single pre-antral follicle and the cluster of multiple follicles were compared and analyzed by divided into 3 groups: control group, angiotensin II receptor agonist (CGP-42112, Sigma)-treated group, and angiotensin II receptor antagonist (Saralasin, Sigma)-treated group. Specifically, the single pre-antral follicle and the cluster of multiple follicles were treated with the angiotensin II receptor agonist or the angiotensin II receptor antagonist to have a concentration of 10 ug/mL from day 5 of culturing.
(§4) On the 12th day of the culturing, it was observed that the pre-antral follicle was matured into an antral follicle. Then, the antral follicle was treated with recombinant human […], rhCG, Ovidrel®, Merck Serono) of 1.5 IU/m and human epidermal growth factor (hEGF) of 5 ng/mL in order to induce ovulation. At 16 to 18 hours after the ovulation induction, ovulation rate and maturation rate were calculated.
Specifically, the ovulation rate was calculated by counting the number of follicles ovulated after administration of the human […] and the human epidermal growth factor among the seeded follicles, and the maturation rate was calculated by counting the number of ova in MII phase among the ovulated ova. […]

[2] = system: single pre-antral follicle; assay: in vitro culturing of a single pre-antral follicle (growth, ovulation and maturation after ovulation induction); details: for ovulation rate / growth of the follicle: single-follicle culturing, 10 ug/mL from day 5; for ovulation rate: 16 to 18 hours after ovulation induction, versus untreated single-follicle, FIG. 2; for growth of the follicle: fifth day compared with 13th day, versus untreated control (CTL), FIG. 1
From the text: as §1, §2, §3, §4
Specifically, the ovulation rate was calculated by counting the number of follicles ovulated after administration of the human […] and the human epidermal growth factor among the seeded follicles, and the maturation rate was calculated by counting the number of ova in MII phase among the ovulated ova.
In order to investigate effect of angiotensin II in culturing a single-follicle, growth and maturation rates based on the treatment with angiotensin II receptor agonist or angiotensin II receptor antagonist were intended to be investigated. […] Further, ovulation rates were investigated by inducing ovulation in the cultured follicles.

[3] = system: mature follicle ovulated from cultured follicles; assay: in vitro fertilization of ova from cultured follicles and embryo observation
Method: In vitro fertilization was performed to evaluate fertilization rates of the ova obtained by the induction of ovulation. Specifically, a mature follicle ovulated in HTF (human tubal fluid) medium in the 5% CO2 incubator at 37° C. was fertilized with a sperm collected from a 8 week old male C57BL6 mouse. When cell division occur or two pronuclei are seen and a second polar body is observed, the ovum is regarded as fertilized.
In order to further confirm the effect of the angiotensin II in culturing the cluster of multiple follicles, maturation rate and fertilization rate were intended to be checked. Mature follicles were ovulated by treating them with the angiotensin II receptor agonist and inducing the ovulation via the method of Example 1 to Example 5. Then, the ovulated mature follicles were fertilized with sperms.

[4] = system: multiple follicles cultured collectively; assay: culturing multiple follicles collectively (growth, follicle fluid); details: multiple follicles collectively treated with agonist; bottom of FIG. 8
From the text: as §1, with “follicles. […]” for “follicles.”
In order to observe a follicle culturing effect based on a regulation of the angiotensin II receptor, the single pre-antral follicle and the cluster of multiple follicles were compared and analyzed by divided into 3 groups: control group, angiotensin II receptor agonist (CGP-42112, Sigma)-treated group, and angiotensin II receptor antagonist (Saralasin, Sigma)-treated group. […]
On the 12th day of the culturing, it was observed that the pre-antral follicle was matured into an antral follicle. […] At 16 to 18 hours after the ovulation induction, ovulation rate and maturation rate were calculated. […]

[5] = 10 ug/mL from day 5, FIG. 3, FIG. 8 top

Row | Compound | growth of the cluster of multiple follicles [1, 5] | ovulation rate [2] | growth of the follicle [2] | accumulation of the follicle fluid in the follicle ([1]; cluster of multiple follicles, 10 ug/mL from day 5, FIG. 3, FIG. 8 top) | maturation rate ([1]; culturing of the cluster of multiple follicles with agonist treatment, ova in MII phase among ovulated ova, FIG. 5) | cleavage of an embryo ([3]; after fertilizing matured follicles from agonist-treated cultures, FIG. 7) | fertilization rates ([3]; single-follicle culturing compared with culturing of the cluster of multiple follicles, agonist treated, FIG. 6) | follicle fluid accumulation in the follicles [4] | growth of the follicles [4] | maturation rate ([2]; single-follicle culturing with agonist treatment, ova in MII phase among ovulated ova, FIG. 5)
1 | CNCC(=O)N[C@@H](CCCN=C(N)N)C(=O)N[C@H](C(=O)N[C@@H](Cc1ccc(O)cc1)C(=O)N[C@H](C(=O)N[C@@H](Cc1cnc[nH]1)C(=O)N1CCC[C@H]1C(=O)N[C@@H](C)C(=O)O)C(C)C)C(C)C [angiotensin II receptor antagonist, Saralasin] | did not grow simultaneously but fell into apoptosis during development | not significantly different | growing at a level similar to a single-follicle (control group, CTL) that had not been treated | – | – | – | – | – | – | –
2 | CGP-42112 [angiotensin II receptor agonist] | growth of all follicles was significantly promoted; also recorded: significantly promoted to grow | not significantly different | growing at a level similar to a single-follicle (control group, CTL) that had not been treated | increased; also recorded: clearly observed in the all follicles | 26.8% | progression of cleavage of an embryo was observed | no significant difference | almost no follicle fluid accumulation | all follicles promoted to grow but fell into apoptosis during development | 11%
